Laboratory results: patent publication US20230138393A1, “LINKING AMINO ACID SEQUENCES, MANUFACTURING METHOD THEREOF, AND USE THEREOF” (priority 2020, published 2023)

Assays:
DLD-1 cells [1] = test: Cell penetration assay of FITC-labelled Axin analogues (confocal imaging); type: cell-based; conditions: 10 μM
Description: Images were analyzed with NIH ImageJ software.
Cell Penetration Assay: DLD-1 cells were seeded on 35 mm optical dishes at 3e5 per well and were incubated overnight at 37° C./5% CO2. […] Cells were imaged in buffer mimicking the physiological conditions in the cytoplasm (20 mM HEPES, 110 mM KOAc, 5 mM NaOAc, 2 mM MgOAc, 1 mM EGTA, pH 7.3).

DLD-1 cells [2] = conditions: literature; cited from earlier work

For `CC[C@H](C)[C@@H]1NC(=O)[C@@](C)(NC(=O)[C@H](CCC(N)=O)NC(=O)[C@@H]2CCCN2C(=O)[C@H](Cc2c[nH]c3ccccc23)NC(=O)[C@H](CCCNC(=N)N)NC(=O)COCCOCCNC(=S)Nc2ccc3c(c2)C(=O)OC32c3ccc(O)cc3Oc3cc(O)ccc32)CCCC=CCCC[C@@](C)(C(=O)N[C@@H](Cc2c[nH]cn2)C(=O)N[C@H](C(=O)N[C@@H](CCCNC(=N)N)C(=O)N[C@@H](CCCNC(=N)N)C(=O)N[C@H](C(=O)N[C@@H](Cc2c[nH]c3ccccc23)C(=O)N[C@@H](CCCNC(=N)N)C(N)=O)C(C)C)C(C)C)NC(=O)[C@H](CC(=O)O)NC(=O)[C@H](CC(C)C)NC1=O` [Peptide 51, reference compound], the “cellular uptake by confocal fluorescence microscopy (in words)” value (DLD-1 cells [1]) is given as “much weaker fluorescence” and the “reported cell permeability to DLD-1 cells” value (DLD-1 cells [2]) is given as “limited cell permeability”.
